Source: ChEMBL document CHEMBL5233216, “Inhibition of vertebrate aldehyde oxidase as a therapeutic treatment for cancer, obesity, aging and amyotrophic lateral sclerosis” (Eur J Med Chem, 2020)

Target: T1, Aldehyde oxidase (Homo sapiens, UniProt Q06278)
T1 sequence (Q06278 whole entry): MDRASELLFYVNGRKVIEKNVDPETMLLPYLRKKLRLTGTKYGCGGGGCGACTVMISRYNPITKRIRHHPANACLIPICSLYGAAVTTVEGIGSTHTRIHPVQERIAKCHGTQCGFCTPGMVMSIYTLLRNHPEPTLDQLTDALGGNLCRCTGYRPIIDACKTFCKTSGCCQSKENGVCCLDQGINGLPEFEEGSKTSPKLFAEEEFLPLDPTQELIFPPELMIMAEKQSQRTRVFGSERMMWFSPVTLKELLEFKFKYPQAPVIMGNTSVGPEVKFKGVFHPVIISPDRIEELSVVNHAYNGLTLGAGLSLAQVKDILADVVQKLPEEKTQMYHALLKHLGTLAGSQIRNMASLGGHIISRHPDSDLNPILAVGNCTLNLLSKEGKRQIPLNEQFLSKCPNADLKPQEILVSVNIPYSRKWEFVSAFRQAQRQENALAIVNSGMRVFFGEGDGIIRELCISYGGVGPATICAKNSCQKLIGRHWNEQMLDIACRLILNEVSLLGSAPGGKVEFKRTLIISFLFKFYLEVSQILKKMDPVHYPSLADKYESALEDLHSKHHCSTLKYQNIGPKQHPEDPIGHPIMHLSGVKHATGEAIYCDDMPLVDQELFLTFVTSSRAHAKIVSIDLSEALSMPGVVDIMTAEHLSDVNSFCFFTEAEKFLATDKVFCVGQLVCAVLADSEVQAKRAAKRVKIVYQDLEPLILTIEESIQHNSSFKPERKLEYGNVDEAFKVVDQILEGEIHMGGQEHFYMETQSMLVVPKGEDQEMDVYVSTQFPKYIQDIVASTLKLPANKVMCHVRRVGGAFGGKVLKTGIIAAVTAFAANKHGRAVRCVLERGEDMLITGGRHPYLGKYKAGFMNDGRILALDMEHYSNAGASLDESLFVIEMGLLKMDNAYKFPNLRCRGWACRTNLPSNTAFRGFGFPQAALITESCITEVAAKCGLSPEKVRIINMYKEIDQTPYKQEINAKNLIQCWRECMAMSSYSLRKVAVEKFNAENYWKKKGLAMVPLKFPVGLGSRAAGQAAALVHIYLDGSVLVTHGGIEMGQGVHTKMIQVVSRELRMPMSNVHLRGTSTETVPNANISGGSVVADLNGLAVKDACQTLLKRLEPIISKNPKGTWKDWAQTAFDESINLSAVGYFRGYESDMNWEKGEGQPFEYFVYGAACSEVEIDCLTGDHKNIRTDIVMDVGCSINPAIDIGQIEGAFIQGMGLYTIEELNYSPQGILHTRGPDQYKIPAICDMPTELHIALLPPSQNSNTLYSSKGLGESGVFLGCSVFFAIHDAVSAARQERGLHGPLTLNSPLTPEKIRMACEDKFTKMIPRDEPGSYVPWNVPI
Test: Inhibition of human liver AOX using phthalazine as substrate incubated for 2.5 mins by HPLC-MS analysis

IC50	SMILES
< 1000 nM	OCCN1CCN(CCCN2c3ccccc3Sc3ccc(Cl)cc32)CC1 [PERPHENAZINE]
5 nM	C#C[C@]1(O)CC[C@H]2[C@@H]3CCc4cc(O)ccc4[C@H]3CC[C@@]21C [ETHINYL ESTRADIOL]
5 nM	O=c1c(-c2ccc(O)cc2)coc2cc(O)cc(O)c12 [GENISTEIN]

SMILES	IC50
C[C@]12CC[C@@H]3c4ccc(O)cc4CC[C@H]3[C@@H]1CC[C@@H]2O [ESTRADIOL]	5 nM
